Earlier results in EP3771336A1, “REPELLENT COMPOSITION” (priority 2019, dated 2021).
Values after ≈ are worked out from the molar mass of the structure shown.

Key:
Daphnia magna = conditions: aquatic toxicity, daphnids
[1] = at 25°C

Structure (SMILES)	solubility in water	EC50 (Daphnia magna)	vapor pressure [1]
CCCCCCCCCCCC(=O)OC(C)C [IPL, propan-2-yl dodecanoate]	poor solubility in water	–	–
CCCCCCCCCCCCCCCC(=O)OC(C)C [IPP, propan-2-yl hexadecanoate]	immiscible with water	–	–
CCCCCCCCCC(=O)O [Decanoic acid]	–	16 µg/mL (≈ 92.9 µM)	4.88 x 10^-5 kPa
CCCCCCCCCCCC(=O)O [lauric acid, dodecanoic acid]	poorly soluble in water	–	2.13 x 10^-6 kPa
